# Test results taken from US20090105189A1, “METHODS AND COMPOSITIONS FOR AMELIORATING OR INHIBITING DECLINE IN MEMORY OR INTELLIGENCE OR IMPROVING SAME” (priority 2006, published 2009).
# Tests used:
# Assay type in all cases: cell-based
# P2Y receptors = test: P2Y receptor antagonism of uridine-enhanced NGF-stimulated neurite outgrowth in PC12 cells; conditions: PC12, 4 days, uridine 100 μM
# Method: (§1) PC12 cells were sparsely plated on collagen-coated 60 mm culture dishes in MEM containing 1% fetal bovine serum. […] All treatments were performed 24 h after plating. At the end of the treatment period, images were obtained with a phase-contrast Zeiss Axioplan 2 microscope, using OpenLab software. Six digital images were captured for each dish, for a total of 18 to 24 images per treatment group. Approximately 300 cells were quantified for each treatment group for each experiment. Experiments were performed in triplicate. Quantification of neurites, including neurite branching and neurite length, was performed by one more researchers blinded to experimental groups. Neurite length was measured using the public domain NIH software “Image J.” Processes longer than the diameter of the cell body were counted as neurites. Only process-bearing cells were analyzed.
# PC12 cells [1] = test: Uptake of uridine into PC12 cells; conditions: P2Y receptor antagonists
# [2] = test system: PLC/DAG/IP3 signaling pathway; test: PI turnover (inositol phosphate formation) in NGF-differentiated PC12 cells; conditions: for Formation of IP (PI turnover): 1 hour
# Method: Analysis of PI turnover was performed as described by ([…] et al, J Neurochem 69: 704-12, 1997). Briefly, cells were labeled metabolically for 36 h with 1.25 microCurie (μCi)/dish of myo-[2-^3H]inositol (17-0 Curie/mmol; Amersham Biosciences) in serum-free MEM, washed twice with Hank's balanced salt solution (HBSS), and treated for 15 min with 10 mM lithium chloride in HBSS. Drugs were added in the presence of 10 mM lithium for 60 min at 37° C. Cells were lysed with ice-cold methanol, and lipids were removed by extraction with chloroform/methanol/water (2:2:1 by volume). Labeled water-soluble inositol phosphates were separated from free [^3H]inositol by ion-exchange chromatography, using AG 1-X8 columns (Bio-Rad), and 1M ammonium formate and 0.1M formic acid as eluent. Radioactivity was quantified by liquid scintillation spectrometry. P2Y2, P2Y4 and P2Y6 receptors activate the phospholipase C/diacylglycerol/inositol triphosphate (PLC/DAG/IP3) signaling pathway. […] These findings indicate that UTP promotes neurite outgrowth via P2Y receptors-mediated stimulation of the IP signaling pathway.
# PC 12 cells = test: Intracellular CDP-choline levels in PC12 cells treated with uridine; conditions: uridine treatment, after 50 minutes
# Method: (§2) Brain tissue or cells was dissolved in methanol/chloroform (1:2 vol/vol), centrifuged, and the aqueous phase was dried under vacuum, resuspended in 100-200 μL water and separated by HPLC on an ion-exchange column (Alltech Hypersil APS-2, 5 μM, 250×4.6 mm). CDP-choline was eluted with a linear gradient of NaH2PO4 buffers A (1.75 mM NaH2PO4, pH 2.9) and B (500 mM, pH 4.5), which allowed resolution of CDP-choline from closely co-eluting substances such as UMP over 40 min. The retention time for CDP-choline was 9.5 min. Individual nucleotide peaks were detected by UV absorption at […], and were identified by comparison with the positions of authentic standards, as well as by the addition of nucleotide standards to selected samples.
# PC12 cells [3] = test: Intracellular UTP and CTP levels in PC12 cells by HPLC; conditions: PC12, 2 days with NGF, vs NGF only
# Method: as §2
# Levels of intracellular UTP and CTP were analyzed by HPLC as described for Example 5, except that 5 mM NaH2PO4, pH 2.65 was used as buffer A.
# [4] = test system: P2Y2, P2Y4 and P2Y6 receptors; test: P2Y receptor expression in NGF-differentiated PC12 cells; conditions: vs NGF alone
# Method: Western blots utilized rabbit anti-P2Y2, anti-P2Y4 (both from Calbiochem); or rabbit anti-P2Y6 (Novus Biologicals, Littleton, Colo.). PC12 cells were treated as described above, except they were grown on 12 mm glass cover slips ([…] & Co., Vernon Hills, Ill.) coated with collagen. Proteins were visualized using immunofluorescence. […] For P2Y2 and P2Y4 visualization, control cultures were incubated with primary antibody plus a control antigen in order to ensure that the immuno-staining would be specific. Control antigen was not available for the P2Y6 receptor. Cells were then incubated in fluorochrome-conjugated secondary antibodies for 1 hour (goat anti-rabbit ALEXA 488 and goat anti-mouse ALEXA 568; Molecular Probes, Eugene, Oreg.) and mounted on glass slides with mounting media with or without DAPI (Vector Laboratories, Burlingame, Calif.). Control antigens provided with the primary antibodies were used to ensure that immuno-staining was specific. […] To determine whether these receptors participate in the mechanism by which extracellular UTP affects neurite outgrowth, it was first determined whether the receptors are expressed in PC 12 cells, and whether exposure to NGF alters their expression, PC 12 cells were treated for 0-7 days with NGF and levels of the receptors measured. […]
# PC12 cells [5] = test: NGF-induced neurite outgrowth in PC12 cells; conditions: for Number of neurites per cell: PC12, with NGF
# Method: PC12 cells were maintained in Minimal Essential Medium (MEM; Invitrogen, Carlsbad, Calif.) supplemented with 10% fetal bovine serum (FBS) at 37° C. Experimental incubations were for 2 or 4 days in medium containing 50 ng/ml mouse 2.5 S (2.5 subunit) NGF and 1% FBS, with or without test compounds. NGF and FBS were obtained from Invitrogen.
# as §1
smiles,measurement,setting,value
Cc1ccc(C(=O)Nc2ccc(S(=O)(=O)O)c3cc(S(=O)(=O)O)cc(S(=O)(=O)O)c23)cc1NC(=O)c1cccc(NC(=O)Nc2cccc(C(=O)Nc3cc(C(=O)Nc4ccc(S(=O)(=O)O)c5cc(S(=O)(=O)O)cc(S(=O)(=O)O)c45)ccc3C)c2)c1 [suramin],Block of uridine enhancement of NGF-stimulated neurite outgrowth,P2Y receptors; antagonist 30 μM,significantly (p<0.05 or 0.001) blocked
same,Inhibition of uptake of uridine into PC12 cells,PC12 cells [1],None of the P2Y receptor antagonists inhibited
"Cc1nc(N=Nc2ccc(S(=O)(=O)O)cc2S(=O)(=O)O)c(COP(=O)(O)O)c(C=O)c1O [PPADS, pyridoxal-phosphate-6-azophenyl-2′,4′ disulfonic acid]",Block of uridine enhancement of NGF-stimulated neurite outgrowth,P2Y receptors; antagonist 30 μM,significantly (p<0.05 or 0.001) blocked
same,Block of UTP-stimulated IP signaling,"[2]; NGF-differentiated PC12, antagonist 100 μM",significantly (p<0.05) blocked
same,Inhibition of uptake of uridine into PC12 cells,PC12 cells [1],None of the P2Y receptor antagonists inhibited
"Nc1c(S(=O)(=O)O)cc(Nc2ccc(Nc3nc(Cl)nc(Nc4cccc(S(=O)(=O)O)c4)n3)c(S(=O)(=O)O)c2)c2c1C(=O)c1ccccc1C2=O [RB-2, reactive blue 2]",Block of uridine enhancement of NGF-stimulated neurite outgrowth,P2Y receptors; antagonist 10 μM,significantly (p<0.05 or 0.001) blocked
same,Inhibition of uptake of uridine into PC12 cells,PC12 cells [1],None of the P2Y receptor antagonists inhibited
O=c1ccn([C@@H]2O[C@H](CO)[C@@H](O)[C@H]2O)c(=O)[nH]1 [uridine],Intracellular CDP-choline levels,PC 12 cells,statistically significant increase
same,Intracellular CTP levels,PC12 cells [3]; 50 μM,significantly (p<0.05) increased
same,Intracellular UTP levels,PC12 cells [3]; 50 μM,significantly (p<0.05) increased
same,Formation of IP (PI turnover),"[2]; NGF-differentiated PC12, 50 μM",significantly increased
same,"Expression of P2Y2, P2Y4 and P2Y6 receptors",[4],did not affect the expression of the receptors
same,Average neurite length,PC12 cells [5]; NGF-differentiated PC12 cells,did not significantly affect
same,Number of neurite branch points per cell,"PC12 cells [5]; PC12, NGF, 50 μM, 4 days, vs NGF only",significantly (p<0.01) increased
same,Production of neurites,"PC12 cells [5]; PC12, absence of NGF, 50 μM, 2 or 4 days",did not result in the production of neurites
same,Number of neurites per cell,"PC12 cells [5]; 2-day treatment or lower concentrations (10, 25 μM)",had no effect
same,Number of neurites per cell,"PC12 cells [5]; 50-200 μM, 4 days",significantly (p<0.01 or 0.001) enhanced
"O=c1ccn([C@@H]2O[C@H](COP(=O)(O)OP(=O)(O)OP(=O)(O)O)[C@@H](O)[C@H]2O)c(=O)[nH]1 [UTP, uridine-5′-triphosphate]",Intracellular CTP levels,PC12 cells [3]; 100 μM,did not significantly affect
same,Intracellular UTP levels,PC12 cells [3]; 100 μM,did not significantly affect
same,Formation of IP (PI turnover),"[2]; NGF-differentiated PC12, 100 μM",significantly increased
same,Neurite outgrowth (neurites per cell),"PC12 cells [5]; PC12, NGF, 10 and 50 μM, 4 days, vs NGF only",significantly (p<0.01) enhanced
Nc1ccn([C@@H]2O[C@H](CO)[C@@H](O)[C@H]2O)c(=O)n1 [cytidine],Intracellular CTP levels,PC12 cells [3]; 50 μM,did not significantly affect
same,Intracellular UTP levels,PC12 cells [3]; 50 μM,did not significantly affect
same,Neurite outgrowth,"PC12 cells [5]; NGF-exposed PC12 cells, cytidine treatment",had no effect on neurite outgrowth
